{
  "source": "patent US20170239173A1",
  "about": "“TRANSDERMAL ABSORPTION ENHANCER AND TRANSDERMAL ABSORPTION ENHANCEMENT AID” (ASAHI KASEI KABUSHIKI KAISHA, priority 2014, published 2017)",
  "key": {"[1]": {"details": "cited from earlier work"}, "[2]": {"details": "cited from earlier work", "remark": "listed apart in the source"}, "[3]": {"test": "Franz cell test of MZR preparations, artificial skin", "details": "equimolar salt of choline with the acidic compound b) as enhancer"}, "[4]": {"test_system": "hairless mouse skin (Laboskin)"}, "Yucatan Micropig Skin": {"test_system": "Yucatan Micropig Skin", "details": "Non Patent Literature 1, at maximum; cited from earlier work"}, "[5]": {"test": "Solubility / state of the active ingredient in the preparation (equimolar salt or enhancer)", "format": "physicochemical", "details": "solubility of MZR in the equimolar salt of the basic compound a) with isostearic acid or linoleic acid"}, "[6]": {"details": "subcutaneous administration to rats; cited from earlier work"}, "[7]": {"details": "partition coefficient between water and 1-octanol; cited from earlier work"}},
  "note": "Like-named read-outs stand apart in the source and are kept apart here.",
  "data": [
    {"smiles": "O=C(O)CCCC(=O)O", "note": "[Glutaric acid]", "values": [
      {"measurement": "pKa", "setting": "[1]", "result": 4.34},
      {"measurement": "pKa", "setting": "[1]; second value", "result": 5.42},
      {"measurement": "Water solubility", "setting": "[2]; 20° C.", "result": "430 g/L (20° C.)"},
      {"measurement": "Transdermal penetrability of MZR (artificial skin)", "setting": "[3]", "result": "Penetrated"}
    ]},
    {"smiles": "CCCCCCCCCCCCCCCCCC(=O)O", "note": "[Stearic acid]", "values": [
      {"measurement": "pKa", "setting": "[1]", "result": 4.75}
    ]},
    {"smiles": "CCCCCCCCCCCCCCCC(=O)O", "note": "[Palmitic acid]", "values": [
      {"measurement": "pKa", "setting": "[1]", "result": 4.75}
    ]},
    {"smiles": "COc1cc(C(O)C(=O)O)ccc1O", "note": "(centres unmarked) [Vanillylmandelic acid]", "values": [
      {"measurement": "Transdermal penetrability of MZR (hairless mouse)", "setting": "[4]", "result": "Not penetrated"},
      {"measurement": "pKa", "setting": "[1]", "result": 3.11},
      {"measurement": "Water solubility", "setting": "[2]; H2O", "result": "H2O: ~50 mg/mL"}
    ]},
    {"smiles": "Nc1nc2c(ncn2COCCO)c(=O)[nH]1", "note": "[ACV, acyclovir]", "values": [
      {"measurement": "transdermal penetration amount of ACV for 24 hours", "setting": "Yucatan Micropig Skin", "result": "≤ 0.5", "unit": "μg/cm^2"}
    ]},
    {"smiles": "CCCCCCCCCCCCCC(=O)O", "note": "[Myristic acid]", "values": [
      {"measurement": "Transdermal penetrability of MZR (hairless mouse)", "setting": "[4]", "result": "Penetrated"},
      {"measurement": "pKa", "setting": "[1]", "result": 4.90},
      {"measurement": "Water solubility", "setting": "[2]; at 18° C.", "result": "<0.1", "unit": "g/100 mL at"}
    ]},
    {"smiles": "CCCCCCCC/C=C\\CCCCCCCC(=O)O", "note": "[Oleic acid]", "values": [
      {"measurement": "Transdermal penetrability of MZR (hairless mouse)", "setting": "[4]", "result": "Penetrated"},
      {"measurement": "Water solubility", "setting": "[2]; in words", "result": "negligible"}
    ]},
    {"smiles": "O=C(O)c1ccccc1", "note": "[Benzoic acid]", "values": [
      {"measurement": "Transdermal penetrability of MZR (artificial skin)", "setting": "[3]", "result": "Penetrated"}
    ]},
    {"smiles": "NCCc1c[nH]cn1", "note": "[Histamine]", "values": [
      {"measurement": "MZR dissolution", "setting": "[5]", "result": "Dissolved"},
      {"measurement": "Transdermal penetrability of MZR", "setting": "[4]", "result": "Penetrated"}
    ]},
    {"smiles": "O=C(O)/C=C\\C(=O)O", "note": "[Maleic acid]", "values": [
      {"measurement": "Water solubility", "setting": "[2]; 25° C.", "result": "78 g/100 mL (25° C.)"}
    ]},
    {"smiles": "C[N+](C)(C)CCOP(=O)([O-])OC[C@H](O)CO", "note": "[αGPC]", "values": [
      {"measurement": "MZR dissolution", "setting": "[5]", "result": "Insoluble"},
      {"measurement": "Transdermal penetrability of MZR", "setting": "[4]", "result": "Not penetrated"}
    ]},
    {"smiles": "N=C(N)N", "note": "[Guanidine]", "values": [
      {"measurement": "MZR dissolution", "setting": "[5]", "result": "Dissolved"},
      {"measurement": "Transdermal penetrability of MZR", "setting": "[4]", "result": "Penetrated"}
    ]},
    {"smiles": "CCCCCCCCCCCC(=O)O", "note": "[Dodecanoic acid]", "values": [
      {"measurement": "Transdermal penetrability of MZR (hairless mouse)", "setting": "[4]", "result": "Penetrated"},
      {"measurement": "pKa", "setting": "[1]", "result": 5.30},
      {"measurement": "Water solubility", "setting": "[2]; 20° C.", "result": "5.5 mg/100 g (20° C.)"}
    ]},
    {"smiles": "CC(O)CNCC(C)O", "note": "(centres unmarked) [DIPA]", "values": [
      {"measurement": "MZR dissolution", "setting": "[5]", "result": "Insoluble"},
      {"measurement": "Transdermal penetrability of MZR", "setting": "[4]", "result": "Not penetrated"}
    ]},
    {"smiles": "NC(=O)c1ncn([C@@H]2O[C@H](CO)[C@@H](O)[C@H]2O)c1O", "note": "[MZR, mizoribine]", "values": [
      {"measurement": "rate of penetration", "setting": "[4]; hairless, mouse", "result": "approximately 30%"},
      {"measurement": "no-observed-adverse-effect level (NOAEL)", "setting": "[6]", "result": 5, "unit": "mg/kg"},
      {"measurement": "Log P", "setting": "[7]", "result": "−1.9"}
    ]},
    {"smiles": "O=C(O)CO", "note": "[Glycolic acid]", "values": [
      {"measurement": "Transdermal penetrability of MZR (artificial skin)", "setting": "[3]", "result": "Penetrated"}
    ]},
    {"smiles": "O=C(O)/C=C/C(=O)O", "note": "[Fumaric acid]", "values": [
      {"measurement": "Water solubility", "setting": "[2]; 25° C.", "result": 0.63, "unit": "g/100 mL-water"}
    ]},
    {"smiles": "CC(C)CCCCCCCCCCCCCCC(=O)O", "note": "[Isostearic acid]", "values": [
      {"measurement": "pKa", "setting": "[1]", "result": 4.90}
    ]},
    {"smiles": "CC(O)C(=O)O", "note": "(racemic) [DL-lactic acid]", "values": [
      {"measurement": "Transdermal penetrability of MZR (artificial skin)", "setting": "[3]", "result": "Penetrated"}
    ]}
  ]
}
